According to the NIST ThermoML archive (doi:10.1016/j.jct.2012.10.004):

Conditions: Liquid, Vibrating tube method

CCCC[N+]1(C)CCCC1.O=S(=O)([N-]S(=O)(=O)C(F)(F)F)C(F)(F)F
mass density [kg/m3]
Conditions	100 kPa	1000 kPa	10000 kPa	20000 kPa	40000 kPa	60000 kPa	80000 kPa	100000 kPa	120000 kPa
278.15 K	1415.1	1415.7	1421.5	1428	1439.8	1450.6	1460.8	1470.2	1479.1
298.15 K	1395.2	1395.8	1401.8	1408.4	1420.7	1432.2	1442.8	1452.9	1462.9
313.15 K	1381.6	1382.3	1388.8	1395.8	1408.7	1420.7	1431.6	1441.8	1451.8
333.15 K	1364	1364.7	1371.6	1379	1392.6	1405.2	1416.6	1427.4	1437.6
348.15 K	1351.1	1351.8	1359.1	1366.9	1381.1	1394	1405.9	1416.9	1427.5
373.15 K	1330.5	1330.8	1338.6	1347	1362.2	1375.9	1388.3	1399.9	1410.9
398.15 K	1307.8	1308.7	1316.4	1325.3	1341.7	1356.3	1369.7	1382	1393.5
